# Where a name gives a salt, the structure may show the parent alone. Read-outs that look alike come from different tables or passages of the source.
# Columns and labels:
# Format in all cases: cell-based
# [1] = test system: Aspergillus fumigatus; test: In vitro antifungal activity, MIC (Method A); conditions: 3 days, 27° C.; for MIC: Aspergillus fumigatus, 72 h; for Antifungal activity MIC: 1×10^5 cells/ml, pH 7.0
# Description: (§1) The in vitro antifungal activities of representative compounds of the present invention were measured by determining the minimal inhibitory concentration (MIC), which is the concentration of an antifungal at which no fungal growth can be observed.
# (§2) The MICs were determined by the microbroth dilution procedure according to NCCLS with the following minor modifications (Galgiani et al., Antimicrob. Agents Chemother., 33, 731 (1989). The medium was solidified with 0.2% low melting point agarose and buffered to pH 7.0 with 0.25%: K2 HPO4 in Yeast Nitrogen Base (Difco Lab.). Inoculum size was 1×10^5 cells/ml, and incubation was carried out for 3 days at 27° C. The MICs ([…]) are shown in Table 1. The reference compound is compound (IA) in U.S. Pat. No. 4,952,604. The compounds used are identified by reference to the Examples in which they were prepared.
# (§3) The in vitro antifungal activities of the representative compounds of the present invention shown in Table 1 and Table 2 were measured by determining the minimal inhibitory concentrations (MIC: Method A) or 80% growth inhibition concentration (IC80 : Method B) respectively. MIC is defined as the concentration of an antifungal at which growth of fungi is not observed and IC80 is the concentration where cell turbidity measured at OD630 is reduced by 80%.
# (§4) Antifungal activities were determined by either method A or B (see below) using microtest plates according NCCLS with minor modifications (Galgiani et at., Antimicrob. Agents Chemother. 33, 731 (1989)).
# (§5) (Method A) The medium was solidified with 0.2% low melting point agarose and buffered to pH 7.0 with 0.25% K2 HPO4 in Yeast Nitrogen Base (Difco Lab.). Inoculum size was 1×10^5 cells/ml, and incubation was carried out for 3 days at 27° C. The reference compound is compound (IA) in U.S. Pat. No. 4,952,604.
# [2] = test system: Candida albicans; test: In vitro antifungal activity, MIC (Method A); conditions: 3 days, 27° C.; for MIC: Candida albicans, 72 h; for Antifungal activity MIC: 1×10^5 cells/ml, pH 7.0
# Description: as §1, §2, §3, §4, §5
# [3] = test system: Cryptococcus neoformans; test: In vitro antifungal activity, MIC (Method A); conditions: 3 days, 27° C.; for MIC: Cryptococcus neoformans, 72 h; for Antifungal activity MIC: 1×10^5 cells/ml, pH 7.0
# Description: as §1, §2, §3, §4, §5
# [4] = test system: A. fumigatus; test: In vitro antifungal activity, IC80 (Method B); conditions: Aspergillus fumigatus, 1×10^4 cells/ml, 1-2 days, 27° C., 0.2% agar, read-out: Antifungal activity IC80
# Description: as §3, §4
# (§6) (Method B) The medium for yeast was buffered to pH 7.0 with 0.25% K2 HPO4 in Yeast Nitrogen Base (Difco Lab.). For the filamentous fungi, 0.2% of low melting point agar was supplemented to the above medium. Inoculum size was 1×10^4 cells/ml, and incubation was carried out for 1-2 days at 27° C. Fluconazole (Pfizer) was used as reference.
# [5] = test system: C. neoformans; test: In vitro antifungal activity, IC80 (Method B); conditions: Cryptococcus neoformans, 1-2 days, 27° C., read-out: Antifungal activity IC80
# Description: as §3, §4, §6
# [6] = test system: Candida albicans; test: In vitro antifungal activity, IC80 (Method B); conditions: 1-2 days, 27° C., read-out: Antifungal activity IC80
# Description: as §3, §4, §6
# [7] = pH 7, Aspergillus fumigatus CF1003, 1×10^5 cells/ml
# [8] = pH 7, Aspergillus fumigatus CF1004, 1×10^5 cells/ml
# [9] = pH 7, Aspergillus fumigatus CF1023, 1×10^5 cells/ml
# [10] = pH 7, Candida albicans CY1002, 1×10^5 cells/ml
# [11] = pH 7, Candida albicans CY1005, 1×10^5 cells/ml
# [12] = pH 7, Candida albicans CY3003, 1×10^5 cells/ml
# [13] = pH 7, Cryptococcus neoformans CY1057, 1×10^5 cells/ml
# [14] = pH 7, Cryptococcus neoformans CY1059, 1×10^5 cells/ml
# [15] = pH 7, Cryptococcus neoformans CY1061, 1×10^5 cells/ml
Compound,"MIC [1, 7] [µg/mL]","MIC [1, 8] [µg/mL]","MIC [1, 9] [µg/mL]","MIC [2, 10] [µg/mL]","MIC [2, 11] [µg/mL]","MIC [2, 12] [µg/mL]","MIC [3, 13] [µg/mL]","MIC [3, 14] [µg/mL]","MIC [3, 15] [µg/mL]",also measured
"CCCCCCCCC[C@@H]1OC[C@H](C)[C@H](OCCC)[C@H]1OC(=O)CN [Example 23, 2S,3R,4S,5S)-5-methyl-2-nonyl-4-propoxytetrahydro-2-H-pyran-3-yl glycinate trifluoroacetic acid salt]",50,50,50,25,25,50,12.5,12.5,12.5,
"CCCCCCC/C=C\[C@@H]1OC[C@H](C)[C@H](OCC)[C@@H]1OC(=O)CN.O=C(O)C(F)(F)F [Example 27, (2S,3R,4S,5S)-4-ethoxy-5-methyl-2-[(Z)-1-nonenyl]tetrahydro-2H-pyran-3-yl glycinate trifluoroacetic acid salt]",50,100,50,100,100,50,6.25,12.5,12.5,
"CCCCCCC/C=C/[C@@H]1OC[C@H](C)C[C@H]1OC(=O)CN.O=C(O)C(F)(F)F [Example 28, (2S,3R,5R)-5-methyl-2-[(E)-1-nonenyl]tetrahydro-2H-pyran-3-yl glycinate trifluoroacetic acid salt]",50,50,25,50,50,50,3.13,3.13,12.5,
"CCCCCCC/C=C/[C@@H]1OC[C@@H](OCc2ccccc2)[C@H](OC)[C@@H]1OC(=O)CN.O=C(O)C(F)(F)F [Example 31, (2S,3R,4S,5R)-5-benzyloxy-4-methoxy-2-[(E)-1-nonenyl]tetra-hydro-2H-pyran-3-yl glycinate trifluoroacetic acid salt]",100,200,50,50,50,25,6.25,12.5,12.5,
"CCCCCCC/C=C\[C@@H]1OC[C@@H](C)[C@H](OC)[C@H]1OC(=O)CN.O=C(O)C(F)(F)F [Example 42, (2S,3R,4S,5R)-4-methoxy-5-methyl-2-[(Z)-1-nonenyl]tetrahydro-2H-pyran-3-yl glycinate trifluoroacetic acid salt]",100,100,50,100,50,50,3.13,3.13,12.5,
"CCCCCCCCC[C@@H]1OC[C@@H](C)[C@H](OC)[C@@H]1OC(=O)CN.O=C(O)C(F)(F)F [Example 43, (2S,3R,4S,5R)-4-methoxy-5-methyl-2-nonyltetrahydro-2H-pyran-3-yl glycinate trifluoroacetic acid salt]",50,50,25,50,25,25,6.25,6.25,12.5,
"CCCCCCC/C=C/[C@@H]1OC[C@H](C)C2(OCCO2)[C@H]1OC(=O)CN.O=C(O)C(F)(F)F [Example 46, (6S,7S,10S)-10-methyl-7-[(E)-1-nonenyl]-1,4,8-trioxaspiro[4,5]decan-6-yl glycinate trifluoroacetic acid salt]",25,25,25,50,25,25,25,50,50,
"CCCCC/C=C/C=C/[C@@H]1OC[C@H](C)[C@H](OC)[C@H]1OC(=O)CN.O=CO [Example 47, (2S,3R,4S,5S)-4-methoxy-5-methyl-2-[(1E,3E)-1,3-nonadienyl]tetrahydro-2H-pyran-3-yl glycinate formic acid salt]",25,25,25,100,100,100,12.5,12.5,25,
"CCCCCCCCO[C@@H]1CCC(C)(C)[C@H](OC)[C@H]1NC(=O)CN [Example 54, (1R,2S,3S)-2-[(aminoacetyl)amino-4,4-dimethyl-3-methoxy-1-octyloxycyclohexanetrifluoroacetic acid salt]",,,,,,,,,,"IC80 ([4]; A. fumigatus CF1003): 150 µg/mL; IC80 ([4]; A. fumigatus CF1004): 140 µg/mL; IC80 ([5]; pH 7, C. neoformans CY1057, 1×10^4 cells/ml): 46 µg/mL; IC80 ([5]; pH 7, C. neoformans CY1059, 1×10^4 cells/ml): 47 µg/mL; IC80 ([6]; pH 7, Candida albicans CY1002, 1×10^4 cells/ml): 18 µg/mL; IC80 ([6]; pH 7, Candida albicans CY1005, 1×10^4 cells/ml): 12 µg/mL; IC80 ([6]; pH 7, Candida albicans CY3003, 1×10^4 cells/ml): 18 µg/mL"
"CCCCCCCCC[C@@H]1OC[C@H](C)C=C1Cn1ccnc1 [Example 59, 1-[[(2S,5R)-5,6-dihydro-5-methyl-2-nonyl-2H-pyran-3-yl]methyl]-1H-imidazole]",3.13,12.5,12.5,50,25,25,3.13,6.25,3.13,
"CCCCCCCCO[C@@H]1CCC(C)(C)[C@H](OC)[C@@H]1Cn1ccnc1 [Example 68, 1-[[(1R,2R,6R)-2-methoxy-3,3-dimethyl-6-octyloxy-cyclohexyl]methyl]-1H-imidazole]",6.25,12.2,6.25,25,12.5,12.5,0.39,0.78,3.13,
"(2S,3R,4S,5R)-5-butoxy-4-methoxy-2-[(E)-1-nonenyl]tetra-hydro-2H-pyran-3-ylglycinate trifluoroacetic acid salt [Example 35]",,,,,,,,,,Antifungal activity MIC ([1]; Aspergillus fumigatus CF1003): 25 µg/mL; Antifungal activity MIC ([1]; Aspergillus fumigatus CF1004): 25 µg/mL; Antifungal activity MIC ([1]; Aspergillus fumigatus CF1023): 25 µg/mL; Antifungal activity MIC ([2]; Candida albicans CY1002): 25 µg/mL; Antifungal activity MIC ([2]; Candida albicans CY1005): 25 µg/mL; Antifungal activity MIC ([2]; Candida albicans CY3003): 50 µg/mL; Antifungal activity MIC ([3]; Cryptococcus neoformans CY1057): 3.13 µg/mL; Antifungal activity MIC ([3]; Cryptococcus neoformans CY1059): 6.25 µg/mL; Antifungal activity MIC ([3]; Cryptococcus neoformans CY1061): 12.5 µg/mL
"(2S,3R,4S,5S)-4-methoxy-5-methyl-2-[(E)-1-nonenyl]tetra-hydro-2H-pyran-3-ylglycinate trifluoroacetic acid salt [Example 24]",,,,,,,,,,Antifungal activity MIC ([1]; Aspergillus fumigatus CF1003): 50 µg/mL; Antifungal activity MIC ([1]; Aspergillus fumigatus CF1004): 25 µg/mL; Antifungal activity MIC ([1]; Aspergillus fumigatus CF1023): 50 µg/mL; Antifungal activity MIC ([2]; Candida albicans CY1002): 50 µg/mL; Antifungal activity MIC ([2]; Candida albicans CY1005): 100 µg/mL; Antifungal activity MIC ([2]; Candida albicans CY3003): 50 µg/mL; Antifungal activity MIC ([3]; Cryptococcus neoformans CY1057): 25 µg/mL; Antifungal activity MIC ([3]; Cryptococcus neoformans CY1059): 25 µg/mL; Antifungal activity MIC ([3]; Cryptococcus neoformans CY1061): 50 µg/mL

# — patent US5719291A, “Cyclohexane derivatives” (Hoffmann-La Roche Inc., priority 1991, dated 1998)
